Experimental data taken from patent US20230265116A1, “DEGRADATION OF (EGFR) BY CONJUGATION OF EGFR INHIBITORS WITH E3 LIGASE LIGAND AND METHODS OF USE” (BEIGENE, LTD., priority 2020, published 2023).

Columns and labels:
[1] = test system: EGFR Del19/T790M/C797S (BaF3-DTC cells); assay: EGFR degradation HTRF assay, BaF3-DTC cells; type: cell-based; settings: 16h treatment; for DTC Dmax (%): maximum percentage of degradation; for DC50: read-out: DTC DC50
Summary of the method: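 EGFR remaining after a 16 h, 37 °C exposure (8 doses, 5-fold steps from 10 uM final, 0.2% DMSO) was quantified by HTRF antibodies in cell lysate. Percent inhibition relative to DMSO control was fitted by four-parameter logistic to give DC50; Dmax denotes maximal degradation.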

[2] = target: T1, EGFR L858R/T790M/C797S (BaF3-LTC cells) (Homo sapiens, UniProt P00533, C797S/L858R/T790M); assay: EGFR degradation HTRF assay, BaF3-LTC cells; type: cell-based; settings: BaF3-LTC, 16h treatment; for Dmax: maximum percentage of degradation, read-out: LTC Dmax (%); for DC50: read-out: LTC DC50
T1 construct: expressed in transfected cells; host or cells: BaF3
Summary of the method: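 Cells treated 16 h at 37 °C, 5% CO2 in medium with 0.2% DMSO; top final concentration 10 uM, 5-fold dilution, 8 doses. Lysates read by HTRF (665/620 nm); degradation % versus DMSO high control, DC50 from four-parameter fit, Dmax as maximal degradation.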

T1 sequence (P00533 25-1210 T790M/C797S/L858R): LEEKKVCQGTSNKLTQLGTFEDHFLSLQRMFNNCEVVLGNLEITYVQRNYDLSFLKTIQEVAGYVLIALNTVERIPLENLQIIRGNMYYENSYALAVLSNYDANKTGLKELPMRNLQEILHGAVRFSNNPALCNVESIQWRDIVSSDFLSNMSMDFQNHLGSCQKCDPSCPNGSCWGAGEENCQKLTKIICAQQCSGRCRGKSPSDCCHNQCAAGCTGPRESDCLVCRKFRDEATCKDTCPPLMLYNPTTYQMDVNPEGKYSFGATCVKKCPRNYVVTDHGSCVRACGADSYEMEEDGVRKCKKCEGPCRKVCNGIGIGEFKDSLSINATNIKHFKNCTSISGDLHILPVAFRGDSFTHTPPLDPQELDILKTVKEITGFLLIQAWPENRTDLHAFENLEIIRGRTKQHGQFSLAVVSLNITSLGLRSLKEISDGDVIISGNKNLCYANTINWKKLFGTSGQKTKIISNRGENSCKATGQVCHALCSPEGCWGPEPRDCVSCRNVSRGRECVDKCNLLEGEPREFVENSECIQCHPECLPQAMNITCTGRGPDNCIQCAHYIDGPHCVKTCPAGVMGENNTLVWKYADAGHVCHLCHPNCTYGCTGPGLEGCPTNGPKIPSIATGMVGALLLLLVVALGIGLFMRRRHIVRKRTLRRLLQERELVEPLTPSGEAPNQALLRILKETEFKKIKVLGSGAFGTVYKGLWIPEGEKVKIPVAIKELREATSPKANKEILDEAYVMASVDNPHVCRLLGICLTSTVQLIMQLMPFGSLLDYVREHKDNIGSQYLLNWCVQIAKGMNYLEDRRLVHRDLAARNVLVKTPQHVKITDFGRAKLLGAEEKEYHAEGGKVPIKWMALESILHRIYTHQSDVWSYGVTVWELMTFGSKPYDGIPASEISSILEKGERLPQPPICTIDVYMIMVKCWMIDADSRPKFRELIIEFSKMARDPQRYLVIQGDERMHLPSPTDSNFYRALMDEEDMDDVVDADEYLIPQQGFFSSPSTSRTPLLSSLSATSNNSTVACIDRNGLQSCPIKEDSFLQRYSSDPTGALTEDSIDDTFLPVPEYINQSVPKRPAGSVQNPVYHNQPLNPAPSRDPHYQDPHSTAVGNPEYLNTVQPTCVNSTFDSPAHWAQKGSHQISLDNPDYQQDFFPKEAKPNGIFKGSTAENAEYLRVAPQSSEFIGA

Q: Which results are given for `CCc1cc(Nc2ncc(Br)c(Nc3ccc4nccnc4c3P(C)(C)=O)n2)c(OC)cc1N1CCC(N2CCN(CCc3ccc(C4CCC(=O)NC4=O)c(F)c3)[C@H](COC)C2)CC1` (stereo partly drawn) [Example 292, 3-(4-(2-((S)-4-(1-(4-((5-bromo-4-((5-(dimethylphosphoryl)quinoxalin-6-yl)amino)pyrimidin-2-yl)amino)-2-ethyl-5-methoxyphenyl)piperidin-4-yl)-2-(methoxymethyl)piperazin-1-yl)ethyl)-2-fluorophenyl)piperidine-2,6-dione]?
A: DTC Dmax (%) [1]: 87.11%; DC50 [1]: 15.1 nM; Dmax [2]: 84.2%; DC50 [2]: 32.3 nM

Q: Which results are given for `CCc1cc(Nc2ncc(Br)c(Nc3ccc4nc(C)ccc4c3P(C)(C)=O)n2)c(OC)cc1N1CCC(N2CCN(CCc3ccc4c(c3)N(C3CCC(=O)NC3=O)C(=O)C4(C)C)CC2)CC1` (stereo not shown) [Example 413, 3-(6-(2-(4-(1-(4-((5-bromo-4-((5-(dimethylphosphoryl)-2-methylquinolin-6-yl)amino)pyrimidin-2-yl)amino)-2-ethyl-5-methoxyphenyl)piperidin-4-yl)piperazin-1-yl)ethyl)-3,3-dimethyl-2-oxoindolin-1-yl)piperidine-2,6-dione]?
A: DTC Dmax (%) [1]: 95.66%; DC50 [1]: 1.91 nM; Dmax [2]: 93.2%; DC50 [2]: 6.11 nM

Q: What does the source list for `CCc1cc(Nc2ncc(Br)c(Nc3ccc4nccnc4c3P(C)(C)=O)n2)c(OC)cc1N1CCC(N2CCN(CCc3cc(F)c(C4CCC(=O)NC4=O)cc3Cl)CC2)CC1` (stereo not shown) [Example 165, 3-(4-(2-(4-(1-(4-((5-bromo-4-((5-(dimethylphosphoryl)quinoxalin-6-yl)amino)pyrimidin-2-yl)amino)-2-ethyl-5-methoxyphenyl)piperidin-4-yl)piperazin-1-yl)ethyl)-5-chloro-2-fluorophenyl)piperidine-2,6-dione]?
A: DTC Dmax (%) [1]: 82.21%; DC50 [1]: 18.1 nM; Dmax [2]: 84.2%; DC50 [2]: 44 nM

Q: `CCc1cc(Nc2ncc(Br)c(Nc3ccc4nc(C)ccc4c3P(C)(C)=O)n2)c(OC)cc1N1CCC(N2CCN(C(=O)C(C)(C)CNc3cc(F)c(C4CCC(=O)NC4=O)c(F)c3)CC2)CC1` (stereo not shown) [Example 706, 3-(4-((3-(4-(1-(4-((5-bromo-4-((5-(dimethylphosphoryl)-2-methylquinolin-6-yl)amino)pyrimidin-2-yl)amino)-2-ethyl-5-methoxyphenyl)piperidin-4-yl)piperazin-1-yl)-2,2-dimethyl-3-oxopropyl)amino)-2,6-difluorophenyl)piperidine-2,6-dione] was tested. Which “DTC Dmax (%)” value [1] did it give?
A: 88.51%

Q: What about the DC50 [1] of the same compound?
A: 2.17 nM

Q: And the Dmax [2]?
A: 90.8%

Q: And the DC50 [2]?
A: 5.64 nM

Q: Which results are given for `CCc1cc(Nc2ncc(Br)c(Nc3ccc4nccnc4c3P(C)(C)=O)n2)c(OC)cc1N1CCC(N2CCN(C[C@H]3CCN(c4ccc5c(c4)CN(C4CCC(=O)NC4=O)C5=O)C3)CC2)CC1` (stereo partly drawn) [Example 237, 3-(5-((R)-3-((4-(1-(4-((5-bromo-4-((5-(dimethylphosphoryl)quinoxalin-6-yl)amino)pyrimidin-2-yl)amino)-2-ethyl-5-methoxyphenyl)piperidin-4-yl)piperazin-1-yl)methyl)pyrrolidin-1-yl)-1-oxoisoindolin-2-yl)piperidine-2,6-dione]?
A: DTC Dmax (%) [1]: 92.67%; DC50 [1]: 6.15 nM; Dmax [2]: 92.5%; DC50 [2]: 9.47 nM

Q: With `CCc1cc(Nc2ncc(Br)c(Nc3ccc4nccnc4c3P(C)(C)=O)n2)c(OC)cc1N1CCC(N2CCN(CCc3ccc4nn(C5CCC(=O)NC5=O)cc4c3)CC2)CC1` (stereo not shown) [Example 309, 3-(5-(2-(4-(1-(4-((5-bromo-4-((5-(dimethylphosphoryl)quinoxalin-6-yl)amino)pyrimidin-2-yl)amino)-2-ethyl-5-methoxyphenyl)piperidin-4-yl)piperazin-1-yl)ethyl)-2H-indazol-2-yl)piperidine-2,6-dione] as the compound, how does the “DTC Dmax (%)” value [1] read?
A: 92.99%

Q: And the DC50 [1]?
A: 5.89 nM

Q: What about the Dmax [2] of the same compound?
A: 87.2%

Q: What about the DC50 [2] of the same compound?
A: 32.1 nM

Q: How did the “DTC Dmax (%)” value [1] turn out when `CCc1cc(Nc2ncc(Br)c(Nc3ccc4nccnc4c3P(C)(C)=O)n2)c(OC)cc1N1CCC(N2CCN(CCc3ccc(C4CCC(=O)NC4=O)c(F)c3)C[C@H]2COC)CC1` (stereo partly drawn) [Example 288, 3-(4-(2-((S)-4-(1-(4-((5-bromo-4-((5-(dimethylphosphoryl)quinoxalin-6-yl)amino)pyrimidin-2-yl)amino)-2-ethyl-5-methoxyphenyl)piperidin-4-yl)-3-(methoxymethyl)piperazin-1-yl)ethyl)-2-fluorophenyl)piperidine-2,6-dione] was run?
A: 69.76%

Q: And the DC50 [1]?
A: 21.3 nM

Q: And the Dmax [2]?
A: 84.1%

Q: And the DC50 [2]?
A: 333 nM

Q: How did the “DTC Dmax (%)” value [1] turn out when `CCc1cc(Nc2ncc(Br)c(Nc3ccc4nc(C)ccc4c3P(C)(C)=O)n2)c(OC)cc1N1CCC(N2CCN([C@H]3C[C@@H](c4cc(F)c(C5CCC(=O)NC5=O)c(F)c4)C3)CC2)CC1` (stereo partly shown) [Example 717, 3-(4-((1s,3s)-3-(4-(1-(4-((5-bromo-4-((5-(dimethylphosphoryl)-2-methylquinolin-6-yl)amino)pyrimidin-2-yl)amino)-2-ethyl-5-methoxyphenyl)piperidin-4-yl)piperazin-1-yl)cyclobutyl)-2,6-difluorophenyl)piperidine-2,6-dione] was run?
A: 94.13%

Q: And the DC50 [1]?
A: 5.98 nM

Q: And the Dmax [2]?
A: 91.4%

Q: What about the DC50 [2] of the same compound?
A: 17.1 nM

Q: How did the “DTC Dmax (%)” value [1] turn out when `CCc1cc(Nc2ncc(Br)c(Nc3ccc4nc(C)ccc4c3P(C)(C)=O)n2)c(OC)cc1N1CCC(N2CCN(C(=O)[C@H]3C[C@H](Nc4cc(F)c(C5CCC(=O)NC5=O)c(F)c4)C3)CC2)CC1` (stereo partly shown) [Example 209, 3-(4-(((1r,3r)-3-(4-(1-(4-((5-bromo-4-((5-(dimethylphosphoryl)-2-methylquinolin-6-yl)amino)pyrimidin-2-yl)amino)-2-ethyl-5-methoxyphenyl)piperidin-4-yl)piperazine-1-carbonyl)cyclobutyl)amino)-2,6-difluorophenyl)piperidine-2,6-dione] was run?
A: 96.2%

Q: And the DC50 [1]?
A: 2.1 nM

Q: And the Dmax [2]?
A: 95.5%

Q: What about the DC50 [2] of the same compound?
A: 3.92 nM

Q: What does the source list for `CCc1cc(Nc2ncc(Br)c(Nc3ccc4nccnc4c3P(C)(C)=O)n2)c(OC)cc1N1CCC(N2CCN(C(=O)C3CN(c4ccc5c(c4)CN(C4CCC(=O)NC4=O)C5=O)C3)CC2)CC1` (stereo not shown) [Example 246, 3-(5-(3-(4-(1-(4-((5-bromo-4-((5-(dimethylphosphoryl)quinoxalin-6-yl)amino)pyrimidin-2-yl)amino)-2-ethyl-5-methoxyphenyl)piperidin-4-yl)piperazine-1-carbonyl)azetidin-1-yl)-1-oxoisoindolin-2-yl)piperidine-2,6-dione]?
A: DTC Dmax (%) [1]: 93.85%; DC50 [1]: 1.51 nM; Dmax [2]: 91%; DC50 [2]: 4.47 nM

Q: `COc1cc(N2CCC(N3CCN(CCc4ccc(C5CCC(=O)NC5=O)c(F)c4)CC3)CC2)ccc1Nc1ncc(Br)c(Nc2ccc3nccnc3c2P(C)(C)=O)n1` (stereo not shown) [Example 212, 3-(4-(2-(4-(1-(4-((5-bromo-4-((5-(dimethylphosphoryl)quinoxalin-6-yl)amino)pyrimidin-2-yl)amino)-3-methoxyphenyl)piperidin-4-yl)piperazin-1-yl)ethyl)-2-fluorophenyl)piperidine-2,6-dione] was tested. Which “DTC Dmax (%)” value [1] did it give?
A: 94.28%

Q: What about the DC50 [1] of the same compound?
A: 16.6 nM

Q: What about the Dmax [2] of the same compound?
A: 78.8%

Q: What about the DC50 [2] of the same compound?
A: 81.2 nM

Q: Which results are given for `CCc1cc(Nc2ncc(Br)c(Nc3ccc4nccnc4c3P(C)(C)=O)n2)c(OC)cc1N1CCC(N2CCN(CCc3ccc(C4CCC(=O)NC4=O)cc3F)CC2)CC1` (stereo not shown) [Example 6, 3-(4-(2-(4-(1-(4-((5-bromo-4-((5-(dimethylphosphoryl)quinoxalin-6-yl)amino)pyrimidin-2-yl)amino)-2-ethyl-5-methoxyphenyl)piperidin-4-yl)piperazin-1-yl)ethyl)-3-fluorophenyl)piperidine-2,6-dione]?
A: DTC Dmax (%) [1]: 81.2%; DC50 [1]: 9.2 nM; Dmax [2]: 82.2%; DC50 [2]: 102 nM

Q: For `CCc1cc(Nc2ncc(Br)c(Nc3ccc4nccnc4c3P(C)(C)=O)n2)c(OC)cc1N1CCC(N2CCN(C(=O)C3CN(c4ccc(C5CCC(=O)NC5=O)cc4)C3)CC2)CC1` (stereo not shown) [Example 199, 3-(4-(3-(4-(1-(4-((5-bromo-4-((5-(dimethylphosphoryl)quinoxalin-6-yl)amino)pyrimidin-2-yl)amino)-2-ethyl-5-methoxyphenyl)piperidin-4-yl)piperazine-1-carbonyl)azetidin-1-yl)phenyl)piperidine-2,6-dione], which “DTC Dmax (%)” value [1] is on record?
A: 84.49%

Q: What about the DC50 [1] of the same compound?
A: 9.03 nM

Q: What about the Dmax [2] of the same compound?
A: 86.6%

Q: And the DC50 [2]?
A: 22.1 nM

Q: What does the source list for `CCc1cc(Nc2ncc(Br)c(Nc3ccc4nccnc4c3P(C)(C)=O)n2)c(OC)cc1N1CCC(N2CCN(CC3CCN(c4ccc5c(c4)CN(C4CCC(=O)NC4=O)C5=O)CC3)CC2)CC1` (stereo not shown) [Example 244, 3-(5-(4-((4-(1-(4-((5-bromo-4-((5-(dimethylphosphoryl)quinoxalin-6-yl)amino)pyrimidin-2-yl)amino)-2-ethyl-5-methoxyphenyl)piperidin-4-yl)piperazin-1-yl)methyl)piperidin-1-yl)-1-oxoisoindolin-2-yl)piperidine-2,6-dione]?
A: DTC Dmax (%) [1]: 88.74%; DC50 [1]: 5.6 nM; Dmax [2]: 89.3%; DC50 [2]: 13 nM

Q: With `CCc1cc(Nc2ncc(Br)c(Nc3ccc4nccnc4c3P(C)(C)=O)n2)c(OC)cc1N1CCC(N2CCN(C3CN(c4ccc(C5CCC(=O)NC5=O)cc4)C3)CC2)CC1` (stereo not shown) [Example 250] as the compound, how does the “DTC Dmax (%)” value [1] read?
A: 75.19%

Q: And the DC50 [1]?
A: 11.1 nM

Q: And the Dmax [2]?
A: 73.8%

Q: And the DC50 [2]?
A: 24.8 nM

Q: How did the “DTC Dmax (%)” value [1] turn out when `CCc1cc(Nc2ncc(Br)c(Nc3ccc4c(=O)n(C)ccc4c3P(C)(C)=O)n2)c(OC)cc1N1CCC(N2CCN(CCC3CCN(c4cc(F)c(C5CCC(=O)NC5=O)c(F)c4)CC3)CC2)CC1` (stereo not shown) [Example 720, 3-(4-(4-(2-(4-(1-(4-((5-bromo-4-((5-(dimethylphosphoryl)-2-methyl-1-oxo-1,2-dihydroisoquinolin-6-yl)amino)pyrimidin-2-yl)amino)-2-ethyl-5-methoxyphenyl)piperidin-4-yl)piperazin-1-yl)ethyl)piperidin-1-yl)-2,6-difluorophenyl)piperidine-2,6-dione] was run?
A: 86.63%

Q: And the DC50 [1]?
A: 10.4 nM

Q: And the Dmax [2]?
A: 91.7%

Q: What about the DC50 [2] of the same compound?
A: 20.3 nM
